We go through five molecules from patent US12173322B2, “Genome-edited induced pluripotent stem cells, and cells derived therefrom, and uses thereof” (priority 2020, dated 2024).

Read-outs that look alike come from different tables or passages of the source.

The target of experiment [1] is T1, hKCNQ1 /mink (Homo sapiens, UniProt P51787).
T1 construct: Eurofins
Put plainly: Patch clamp electrophysiology (QPatch), hKCNQ1/mink. Type of experiment: cell-based.

In experiment [2] the target is T2, hKv4.3/hKChIP2 (Homo sapiens, UniProt Q9UK17).
T2 construct: Eurofins
T2 sequence (Q9UK17 1-655): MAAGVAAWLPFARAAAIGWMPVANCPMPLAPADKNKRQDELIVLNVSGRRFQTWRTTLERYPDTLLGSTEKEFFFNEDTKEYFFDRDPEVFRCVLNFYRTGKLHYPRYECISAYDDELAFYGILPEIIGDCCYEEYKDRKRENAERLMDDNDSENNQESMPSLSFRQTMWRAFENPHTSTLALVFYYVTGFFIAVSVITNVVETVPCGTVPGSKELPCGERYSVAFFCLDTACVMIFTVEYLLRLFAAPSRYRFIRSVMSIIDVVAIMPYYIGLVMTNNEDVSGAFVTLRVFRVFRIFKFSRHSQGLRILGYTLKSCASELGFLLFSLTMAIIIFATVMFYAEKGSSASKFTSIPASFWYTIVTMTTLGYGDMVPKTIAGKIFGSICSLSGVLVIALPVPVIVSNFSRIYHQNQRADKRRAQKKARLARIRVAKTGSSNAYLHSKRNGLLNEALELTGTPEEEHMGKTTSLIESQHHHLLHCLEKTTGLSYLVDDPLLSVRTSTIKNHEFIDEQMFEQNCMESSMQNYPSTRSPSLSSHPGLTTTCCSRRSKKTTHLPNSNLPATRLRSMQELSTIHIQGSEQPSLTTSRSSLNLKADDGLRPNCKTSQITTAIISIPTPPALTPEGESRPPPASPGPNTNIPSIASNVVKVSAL
T2 sequence (Q9NS61 1-270 partner): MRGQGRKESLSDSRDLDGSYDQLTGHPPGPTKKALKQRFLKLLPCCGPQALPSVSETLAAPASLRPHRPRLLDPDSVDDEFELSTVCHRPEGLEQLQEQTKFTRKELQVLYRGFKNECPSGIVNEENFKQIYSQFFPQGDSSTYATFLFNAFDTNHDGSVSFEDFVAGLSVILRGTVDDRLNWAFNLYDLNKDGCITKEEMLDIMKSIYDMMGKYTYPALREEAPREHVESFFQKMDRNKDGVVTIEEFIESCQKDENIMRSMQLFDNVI
In words: Patch clamp electrophysiology (QPatch CiPA), hKv4.3/hKChIP2. Particulars: for IC50: Antagonist, read-out: Estimated IC50. Type of experiment: cell-based.

For experiment [3], the target named is T3, hCav1.2 (Homo sapiens, UniProt Q13936).
T3 construct: Eurofins
T3 sequence (Q13936 whole entry): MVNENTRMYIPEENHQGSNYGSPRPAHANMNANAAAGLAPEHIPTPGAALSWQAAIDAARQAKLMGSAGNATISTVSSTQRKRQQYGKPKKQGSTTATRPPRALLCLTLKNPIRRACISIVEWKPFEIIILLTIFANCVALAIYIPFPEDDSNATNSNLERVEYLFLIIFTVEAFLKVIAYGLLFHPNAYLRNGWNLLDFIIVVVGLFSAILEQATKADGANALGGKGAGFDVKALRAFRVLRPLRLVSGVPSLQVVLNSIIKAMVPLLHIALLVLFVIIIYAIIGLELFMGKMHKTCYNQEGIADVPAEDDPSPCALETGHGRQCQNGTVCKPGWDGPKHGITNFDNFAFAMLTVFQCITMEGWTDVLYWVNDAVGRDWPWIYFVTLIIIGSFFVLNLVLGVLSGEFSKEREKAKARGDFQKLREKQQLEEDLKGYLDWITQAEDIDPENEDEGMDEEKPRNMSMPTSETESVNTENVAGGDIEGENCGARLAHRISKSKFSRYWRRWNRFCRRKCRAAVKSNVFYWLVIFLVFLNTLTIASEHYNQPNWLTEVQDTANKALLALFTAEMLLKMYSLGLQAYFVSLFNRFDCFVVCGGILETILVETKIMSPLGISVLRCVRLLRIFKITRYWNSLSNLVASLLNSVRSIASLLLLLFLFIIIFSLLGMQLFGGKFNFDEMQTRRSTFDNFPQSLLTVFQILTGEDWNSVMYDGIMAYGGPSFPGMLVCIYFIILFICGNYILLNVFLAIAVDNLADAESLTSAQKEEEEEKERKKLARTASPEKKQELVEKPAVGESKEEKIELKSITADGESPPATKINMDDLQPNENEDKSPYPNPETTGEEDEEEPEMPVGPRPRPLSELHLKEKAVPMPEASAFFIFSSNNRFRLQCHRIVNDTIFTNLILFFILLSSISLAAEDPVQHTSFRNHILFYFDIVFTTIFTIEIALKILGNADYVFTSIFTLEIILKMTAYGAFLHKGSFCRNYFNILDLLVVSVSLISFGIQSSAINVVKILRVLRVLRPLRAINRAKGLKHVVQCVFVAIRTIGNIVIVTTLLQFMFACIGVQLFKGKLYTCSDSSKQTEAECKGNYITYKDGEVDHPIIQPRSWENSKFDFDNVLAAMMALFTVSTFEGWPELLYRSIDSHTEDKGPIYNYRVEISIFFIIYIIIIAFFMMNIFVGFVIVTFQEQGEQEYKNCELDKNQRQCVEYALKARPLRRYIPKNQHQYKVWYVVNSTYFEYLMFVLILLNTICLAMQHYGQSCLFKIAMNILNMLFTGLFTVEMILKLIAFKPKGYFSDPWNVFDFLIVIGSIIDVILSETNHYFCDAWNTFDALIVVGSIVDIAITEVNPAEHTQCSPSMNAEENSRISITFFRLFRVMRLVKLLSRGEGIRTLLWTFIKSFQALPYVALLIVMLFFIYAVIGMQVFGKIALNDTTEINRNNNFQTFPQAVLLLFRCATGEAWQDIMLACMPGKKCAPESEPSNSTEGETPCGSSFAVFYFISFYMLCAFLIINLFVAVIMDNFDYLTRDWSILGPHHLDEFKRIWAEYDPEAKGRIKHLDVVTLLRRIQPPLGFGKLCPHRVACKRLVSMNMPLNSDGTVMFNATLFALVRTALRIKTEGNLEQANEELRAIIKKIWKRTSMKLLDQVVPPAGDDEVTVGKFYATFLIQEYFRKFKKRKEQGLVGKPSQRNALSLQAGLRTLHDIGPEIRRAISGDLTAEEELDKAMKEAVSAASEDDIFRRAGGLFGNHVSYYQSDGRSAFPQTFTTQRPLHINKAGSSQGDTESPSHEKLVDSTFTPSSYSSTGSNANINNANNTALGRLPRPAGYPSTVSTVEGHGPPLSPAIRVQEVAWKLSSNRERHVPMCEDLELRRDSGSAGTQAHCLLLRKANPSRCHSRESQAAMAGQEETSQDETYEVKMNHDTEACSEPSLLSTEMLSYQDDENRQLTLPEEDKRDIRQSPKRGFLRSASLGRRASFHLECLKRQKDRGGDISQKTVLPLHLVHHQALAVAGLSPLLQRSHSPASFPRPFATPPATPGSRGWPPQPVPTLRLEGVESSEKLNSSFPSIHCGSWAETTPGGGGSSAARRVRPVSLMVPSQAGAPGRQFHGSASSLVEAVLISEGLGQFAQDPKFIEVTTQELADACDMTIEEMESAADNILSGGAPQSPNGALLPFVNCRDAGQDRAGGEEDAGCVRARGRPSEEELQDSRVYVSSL
T3 sequence (Q08289 whole entry partner): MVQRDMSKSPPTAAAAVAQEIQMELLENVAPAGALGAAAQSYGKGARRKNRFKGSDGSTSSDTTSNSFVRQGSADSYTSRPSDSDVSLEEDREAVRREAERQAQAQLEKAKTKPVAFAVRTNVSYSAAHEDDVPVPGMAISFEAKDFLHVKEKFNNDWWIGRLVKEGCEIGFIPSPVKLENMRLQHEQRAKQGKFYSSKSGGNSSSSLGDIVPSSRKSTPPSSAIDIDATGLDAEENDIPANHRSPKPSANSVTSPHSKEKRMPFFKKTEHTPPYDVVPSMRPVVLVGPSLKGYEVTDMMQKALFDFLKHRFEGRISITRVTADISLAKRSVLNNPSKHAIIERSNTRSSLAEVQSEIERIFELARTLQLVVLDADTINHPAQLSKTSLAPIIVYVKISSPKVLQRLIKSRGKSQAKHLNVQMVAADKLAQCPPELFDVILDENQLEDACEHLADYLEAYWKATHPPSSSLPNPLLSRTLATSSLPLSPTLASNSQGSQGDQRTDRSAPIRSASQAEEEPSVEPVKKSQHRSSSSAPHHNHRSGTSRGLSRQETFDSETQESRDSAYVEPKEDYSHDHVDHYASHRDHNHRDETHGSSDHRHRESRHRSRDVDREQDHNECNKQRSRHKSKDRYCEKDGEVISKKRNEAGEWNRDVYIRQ
T3 sequence (P54289 25-956 partner limits assumed): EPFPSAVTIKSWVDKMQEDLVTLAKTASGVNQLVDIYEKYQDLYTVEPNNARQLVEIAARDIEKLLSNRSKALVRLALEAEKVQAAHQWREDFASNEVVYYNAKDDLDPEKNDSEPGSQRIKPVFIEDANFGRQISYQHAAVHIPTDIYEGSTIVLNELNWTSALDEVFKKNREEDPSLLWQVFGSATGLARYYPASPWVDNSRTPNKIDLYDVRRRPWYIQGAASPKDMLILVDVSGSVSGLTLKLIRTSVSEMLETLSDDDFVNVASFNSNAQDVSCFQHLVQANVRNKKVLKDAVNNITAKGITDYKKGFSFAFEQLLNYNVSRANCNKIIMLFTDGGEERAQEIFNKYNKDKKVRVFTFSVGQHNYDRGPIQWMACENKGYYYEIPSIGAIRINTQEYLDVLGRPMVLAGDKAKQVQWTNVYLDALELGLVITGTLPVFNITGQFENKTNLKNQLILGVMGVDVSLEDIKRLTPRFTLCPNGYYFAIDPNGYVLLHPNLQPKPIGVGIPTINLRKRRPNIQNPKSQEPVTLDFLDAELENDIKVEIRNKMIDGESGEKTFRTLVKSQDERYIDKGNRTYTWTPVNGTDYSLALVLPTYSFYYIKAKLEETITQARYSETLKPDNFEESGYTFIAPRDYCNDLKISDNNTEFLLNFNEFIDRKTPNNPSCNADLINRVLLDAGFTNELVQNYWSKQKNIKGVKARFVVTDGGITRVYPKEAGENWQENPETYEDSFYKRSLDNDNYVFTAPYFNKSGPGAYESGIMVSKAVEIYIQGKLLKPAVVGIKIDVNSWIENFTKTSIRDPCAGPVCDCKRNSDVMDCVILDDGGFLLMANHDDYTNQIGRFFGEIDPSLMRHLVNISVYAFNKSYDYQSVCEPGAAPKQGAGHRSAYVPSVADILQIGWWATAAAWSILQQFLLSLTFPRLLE
T3 sequence (P54289 957-1103 partner limits assumed): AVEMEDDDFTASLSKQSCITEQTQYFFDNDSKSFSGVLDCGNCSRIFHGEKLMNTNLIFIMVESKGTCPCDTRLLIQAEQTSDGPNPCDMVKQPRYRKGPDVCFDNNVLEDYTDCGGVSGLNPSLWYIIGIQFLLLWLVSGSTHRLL
Put plainly: Patch clamp electrophysiology (QPatch CiPA), hCav1.2. Type of experiment: cell-based. (In general: The patch-clamp technique gives a direct electrical read-out from membranes.)

Experiment [4] addresses T4, hNav1.5 (Homo sapiens, UniProt Q14524).
T4 construct: Eurofins
In words: Patch clamp electrophysiology (QPatch CiPA), hNav1.5. Type of experiment: cell-based.

Experiment [5] deals with hiPSC-CMs. Put plainly: In vitro acidosis injury of hiPSC-CMs, cell death (LDH). Type of experiment: cell-based, human. As to conditions: 20 nM overnight. The text has this: In vitro ischemia-acidosis injury model with hiPSC-CMs. Differentiated cardiomyocytes were replated on either day 15 or day 17 of differentiation for in vitro ischemia/acidosis assays. At the time of replating, a subset of cells (˜500,000) was set aside for flow cytometry analysis of cardiomyocyte purity (see supplemental methods). For all experiments, only cell preparations with >80% sarcomeric α-actinin-positive cardiomyocytes were used. After re-plating, the cells were maintained for an additional 7 days in RPMI+B27™. To prepare media for ischemia/acidosis injury, 10×HBSS without sodium bicarbonate (Sigma) was diluted to 1× concentration in sterile tissue culture-grade water. Solutions were buffered with either 12 mM HEPES (for pH 7.4 media, Sigma Aldrich) or 12 mM MES (for pH <6.5, Sigma Aldrich) and the pH adjusted accordingly with 1 M NaOH. The medium was sterile filtered with 0.22 μm syringe filters (Millipore). […] For reperfusion experiments, the medium was replaced with HBSS pH 7.4 (with or without peptide) after overnight incubation and cultured for 1 h under normoxic conditions. […] For all cell culture experiments, percent cell death was calculated using low and high controls. For low control (LC), cardiomyocytes were cultured overnight in standard culture media (RPMI+B27™). For high control (HC), cells were cultured in RPMI+B27™ containing 1% Triton™ X-100 (Sigma-Aldrich).
To assess whether ASIC1a inhibition is cardioprotective in hiPSC-CMs, the inventors evaluated cell death in response to in vitro acidosis, induced by culturing hiPSC-CMs in Hank's […] (HBSS) with pH adjusted to pH 7.4, 6.0, or 5.0. […] To mimic ischemia/acidosis in vitro, hiPSC-CMs were incubated overnight in combined hypoxic (0.5% O2) and acidic (pH 5.0) conditions with or without peptide.

[6] abbreviates: End, read-out: % inhibition mean.
[7] abbreviates: Peak, read-out: % inhibition mean.
[8] abbreviates: Peak, read-out: % inhibition n1.
Setting [9] is: Peak, read-out: % inhibition n2.

T1 sequence (P51787 whole entry): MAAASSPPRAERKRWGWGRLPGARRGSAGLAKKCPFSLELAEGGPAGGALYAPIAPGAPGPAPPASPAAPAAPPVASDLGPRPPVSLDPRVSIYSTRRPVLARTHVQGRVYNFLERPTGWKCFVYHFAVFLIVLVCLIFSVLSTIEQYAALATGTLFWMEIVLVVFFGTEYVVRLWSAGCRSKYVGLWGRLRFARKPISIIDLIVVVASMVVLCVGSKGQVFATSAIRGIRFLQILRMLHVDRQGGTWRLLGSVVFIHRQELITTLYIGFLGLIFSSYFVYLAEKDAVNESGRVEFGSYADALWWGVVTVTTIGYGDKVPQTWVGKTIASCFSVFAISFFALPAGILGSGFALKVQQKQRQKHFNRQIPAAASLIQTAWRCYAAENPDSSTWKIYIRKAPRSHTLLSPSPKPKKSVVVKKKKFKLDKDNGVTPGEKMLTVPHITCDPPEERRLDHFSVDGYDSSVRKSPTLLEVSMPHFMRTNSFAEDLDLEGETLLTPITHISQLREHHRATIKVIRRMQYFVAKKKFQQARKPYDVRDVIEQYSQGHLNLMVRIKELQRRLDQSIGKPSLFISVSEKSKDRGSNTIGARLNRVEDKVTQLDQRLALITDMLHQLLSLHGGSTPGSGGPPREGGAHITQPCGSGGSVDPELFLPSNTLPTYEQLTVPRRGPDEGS

For the molecule `CCS(=O)(=O)N(C)[C@H]1c2cc(C#N)ccc2OC(C)(C)[C@@H]1O` (racemic) [Chromanol 293B], the “% inhibition mean” value in experiment [1] (0.3 μM) turned out to be 4.24%; in experiment [1] (1 µM), 12.25%; in experiment [1] (3 μM) it was 22.85%; in experiment [1] (10 µM) it was 40.28%; in experiment [1] (30 μM) it was 73.92%; in experiment [1] (100 µM) it was 95.80%. Further, the “% inhibition n1” value in experiment [1] (0.3 μM) was determined as 1.35%; in experiment [1] (1 µM), 9.45%; in experiment [1] (3 μM), 21.34%; in experiment [1] (10 µM), 39.37%; in experiment [1] (30 μM), 74.46%; in experiment [1] (100 µM), 96.45%. Further, the “% inhibition n2” value worked out at 7.13% in experiment [1] (0.3 μM); 15.04% in experiment [1] (1 µM); 24.36% in experiment [1] (3 μM); 41.20% in experiment [1] (10 µM); 73.39% in experiment [1] (30 μM); 95.16% in experiment [1] (100 µM). Further, in experiment [1] (read-out: Estimated IC50), the IC50 (usually the concentration that inhibits the measured activity by half) was 11.5 µM.
Regarding `O=C(NCC1CCCCN1)c1cc(OCC(F)(F)F)ccc1OCC(F)(F)F` (centres unmarked) [Flecainide], the figures for the IC50 in experiment [2] (End) and in experiment [2] (Peak) were 10 µM and 22.5 µM, respectively. Further, the inhibition (as a rule, the percentage by which the read-out fell short of the control) at 0.03 µM in experiment [2] (setting [6]) was determined as 6.93%; in experiment [2] (End, read-out: % inhibition n1), 5.29%; in experiment [2] (End, read-out: % inhibition n2), 8.57%; in experiment [2] (setting [7]), 9.2%; in experiment [2] (setting [8]) it was 7.41%; in experiment [2] (setting [9]), 11%. Further, the inhibition at 0.3 µM is 7.17% in experiment [2] (setting [6]); 2.84% in experiment [2] (End, read-out: % inhibition n1); 11.5% in experiment [2] (End, read-out: % inhibition n2); 8.4% in experiment [2] (setting [7]); 4.05% in experiment [2] (setting [8]); 12.8% in experiment [2] (setting [9]). In addition, the inhibition at 3 µM turned out to be 26.8% in experiment [2] (setting [6]); 25.6% in experiment [2] (End, read-out: % inhibition n1); 27.9% in experiment [2] (End, read-out: % inhibition n2); 12.6% in experiment [2] (setting [7]); 10.6% in experiment [2] (setting [8]); 14.5% in experiment [2] (setting [9]). Further, the inhibition at 30 µM came out at 71.8% in experiment [2] (setting [6]); 69.2% in experiment [2] (End, read-out: % inhibition n1); 74.4% in experiment [2] (End, read-out: % inhibition n2); 55.2% in experiment [2] (setting [7]); 57.5% in experiment [2] (setting [8]); 53% in experiment [2] (setting [9]). For the same molecule, the inhibition at 300 µM stood at 90.5% in experiment [2] (setting [6]); 90% in experiment [2] (End, read-out: % inhibition n1); 91% in experiment [2] (End, read-out: % inhibition n2); 97.4% in experiment [2] (setting [7]); 97.4% in experiment [2] (setting [8]); 97.3% in experiment [2] (setting [9]).
Regarding `COC(=O)C1=C(C)NC(C)=C(C(=O)OC)C1c1ccccc1[N+](=O)[O-]` [Nifedipine], in experiment [3] (read-out: % inhibition mean), the inhibition at 0.001 µM turned out to be 15.1%, the inhibition at 0.01 µM stood at 34.8%, the inhibition at 0.1 µM was 55.7% and the inhibition at 1 µM was 61%. For the same molecule, in experiment [3] (read-out: % inhibition mean), the inhibition at 10 µM amounted to 83.8% and the inhibition at 100 µM is 94.8%. Moreover, in experiment [3] (read-out: % inhibition n1), the inhibition at 0.001 µM is 21.6%, the inhibition at 0.01 µM stood at 38.2%, the inhibition at 0.1 µM worked out at 53.1% and the inhibition at 1 µM turned out to be 56.8%. Further, in experiment [3] (read-out: % inhibition n1), the inhibition at 10 µM came out at 81.4% and the inhibition at 100 µM came out at 95.2%. In experiment [3] (read-out: % inhibition n2), the inhibition at 0.001 µM came out at 8.54%, the inhibition at 0.01 µM was 31.5%, the inhibition at 0.1 µM was found to be 58.2% and the inhibition at 1 µM is 65.2%. For the same molecule, in experiment [3] (read-out: % inhibition n2), the inhibition at 10 µM was found to be 86.1% and the inhibition at 100 µM came to 94.5%.
On to `CCCCNc1ccc(C(=O)OCCN(C)C)cc1` [Tetracaine], for which, in experiment [4] (read-out: % inhibition mean), the inhibition at 0.03 µM amounted to 6.44%, the inhibition at 0.3 µM was 27.2%, the inhibition at 3 µM came to 71.3% and the inhibition at 30 µM was determined as 91.3%. Also, the inhibition at 300 µM in experiment [4] (read-out: % inhibition mean) is 95.9%. In experiment [4] (read-out: % inhibition n1), the inhibition at 0.03 µM was 6.26%, the inhibition at 0.3 µM amounted to 28.8%, the inhibition at 3 µM was 74.2% and the inhibition at 30 µM turned out to be 93.8%. The inhibition at 300 µM in experiment [4] (read-out: % inhibition n1) is 96.6%. Moreover, in experiment [4] (read-out: % inhibition n2), the inhibition at 0.03 µM was found to be 6.62%, the inhibition at 0.3 µM was 25.6%, the inhibition at 3 µM stood at 68.5% and the inhibition at 30 µM was determined as 88.8%. In experiment [4] (read-out: % inhibition n2), the inhibition at 300 µM was found to be 95.2%.

B1: MitTx (protein)
chain 1: QIRPAFCYEDPPFFQKCGAFVDSYYFNRSRITCVHFFYGQCDVNQNHFTTMSECNRVCHG
chain 2: NLNQFRLMIKCTNDRVWADFVDYGCYCVARDSNTPVDDLDRCCQAQKQCYDEAVKVHGCKPLVMFYSFECRYLASDLDCSGNNTKCRNFVCNCDRTATLCILTATYNRNNHKIDPSRCQ
For B1, the cell death entry in experiment [5] (pH 6.0) and in experiment [5] (pH 7.4) was “increased cell death” throughout.
